For orientation: IC50 means the concentration at which inhibition is half-maximal.

recombinant human Nav1.7, sequence (Q15858 whole entry): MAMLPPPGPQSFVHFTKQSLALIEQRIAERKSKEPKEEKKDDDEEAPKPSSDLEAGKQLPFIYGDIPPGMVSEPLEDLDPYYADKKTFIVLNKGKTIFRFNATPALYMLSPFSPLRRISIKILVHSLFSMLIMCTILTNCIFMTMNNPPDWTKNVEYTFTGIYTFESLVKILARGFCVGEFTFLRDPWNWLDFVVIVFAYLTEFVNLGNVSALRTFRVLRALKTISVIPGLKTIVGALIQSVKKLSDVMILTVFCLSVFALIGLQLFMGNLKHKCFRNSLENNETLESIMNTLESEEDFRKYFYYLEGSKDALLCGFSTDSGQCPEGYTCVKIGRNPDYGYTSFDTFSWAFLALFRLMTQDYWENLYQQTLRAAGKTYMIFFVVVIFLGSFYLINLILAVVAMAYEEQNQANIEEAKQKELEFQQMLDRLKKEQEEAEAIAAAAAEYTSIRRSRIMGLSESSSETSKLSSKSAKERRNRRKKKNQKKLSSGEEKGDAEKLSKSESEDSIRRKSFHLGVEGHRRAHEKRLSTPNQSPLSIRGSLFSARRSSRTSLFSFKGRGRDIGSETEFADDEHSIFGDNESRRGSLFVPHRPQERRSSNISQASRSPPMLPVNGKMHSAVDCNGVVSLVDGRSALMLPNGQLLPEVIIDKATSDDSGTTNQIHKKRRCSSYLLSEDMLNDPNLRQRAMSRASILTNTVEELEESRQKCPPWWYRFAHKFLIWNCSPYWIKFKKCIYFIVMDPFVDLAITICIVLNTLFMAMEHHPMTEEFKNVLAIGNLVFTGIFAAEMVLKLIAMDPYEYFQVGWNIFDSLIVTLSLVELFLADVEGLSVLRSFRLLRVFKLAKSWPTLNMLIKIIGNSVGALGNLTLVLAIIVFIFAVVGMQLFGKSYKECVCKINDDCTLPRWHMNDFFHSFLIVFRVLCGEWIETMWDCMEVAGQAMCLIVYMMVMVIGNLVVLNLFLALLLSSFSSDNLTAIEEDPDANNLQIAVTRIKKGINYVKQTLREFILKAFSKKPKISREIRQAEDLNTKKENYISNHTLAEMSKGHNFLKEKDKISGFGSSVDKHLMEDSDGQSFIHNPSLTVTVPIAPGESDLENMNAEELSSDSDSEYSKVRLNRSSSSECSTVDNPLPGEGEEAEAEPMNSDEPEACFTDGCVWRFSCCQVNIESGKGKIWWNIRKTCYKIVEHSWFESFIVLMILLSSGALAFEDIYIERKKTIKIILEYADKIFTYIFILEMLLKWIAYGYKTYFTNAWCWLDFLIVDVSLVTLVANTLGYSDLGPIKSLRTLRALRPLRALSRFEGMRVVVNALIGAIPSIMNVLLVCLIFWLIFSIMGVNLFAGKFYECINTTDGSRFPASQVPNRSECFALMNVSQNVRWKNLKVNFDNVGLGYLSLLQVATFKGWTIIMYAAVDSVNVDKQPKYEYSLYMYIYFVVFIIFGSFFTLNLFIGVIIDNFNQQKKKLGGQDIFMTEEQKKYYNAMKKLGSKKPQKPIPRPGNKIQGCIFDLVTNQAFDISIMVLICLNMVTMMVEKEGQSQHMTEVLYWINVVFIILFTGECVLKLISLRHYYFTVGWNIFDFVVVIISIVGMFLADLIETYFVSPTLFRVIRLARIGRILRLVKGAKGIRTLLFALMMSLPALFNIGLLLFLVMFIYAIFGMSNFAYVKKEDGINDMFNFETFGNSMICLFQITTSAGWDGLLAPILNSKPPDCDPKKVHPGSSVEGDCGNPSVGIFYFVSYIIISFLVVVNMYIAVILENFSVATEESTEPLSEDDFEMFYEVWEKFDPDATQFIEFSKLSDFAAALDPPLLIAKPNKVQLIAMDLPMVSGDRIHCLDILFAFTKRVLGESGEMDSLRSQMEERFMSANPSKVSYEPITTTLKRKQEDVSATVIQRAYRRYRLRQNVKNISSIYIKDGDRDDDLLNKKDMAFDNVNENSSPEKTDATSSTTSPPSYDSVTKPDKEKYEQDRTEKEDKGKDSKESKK

One assay addresses recombinant human Nav1.7 (Homo sapiens (Human), UniProt Q15858). The assay can be described thus: FRET-based membrane potential assay, recombinant human sodium channel Nav1.7. Format: cell-based. To be noted: HEK293 cells stably expressing recombinant human Nav1.7; veratridine + scorpion venom depolarization; read-out: FRET-Membrane Potential Nav1.7 IC50. The method in brief:
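Channel activation used veratridine at its EC80, set by a dilution curve each experiment, together with Leiurus scorpion venom, added 3 min after compound. Membrane-potential ratio signals from FLIPR Tetra in HEPES-buffered HBSS were fitted to a four-parameter Hill equation for percent inhibition and IC50.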
As to `O=C(NC1CCC(F)(F)C1)c1ccc2cc(Oc3ccc(C(F)(F)F)cn3)ccc2n1` (stereo not drawn) [Example 485, N-(3,3-difluorocyclopentyl)-6-{[5-(trifluoromethyl)pyridin-2-yl]oxy}quinoline-2-carboxamide], the IC50 was determined as 3.14 µM.

Turning to `COCC1(F)CCN(C(=O)c2ccc3cc(Oc4ccc(C(F)(F)F)cn4)ccc3n2)C1` (stereo not drawn) [Example 487, [3-fluoro-3-(methoxymethyl)pyrrolidin-1-yl](6-{[5-(trifluoromethyl)pyridin-2-yl]oxy}quinolin-2-yl)methanone], the IC50 was 0.919 µM.

For the compound `O=C(c1ccc2cc(Oc3ccc(C(F)(F)F)cn3)ccc2n1)N1CCC(F)(COc2ccncc2)C1` (stereo not drawn) [Example 489, {3-fluoro-3-[(pyridin-4-yloxy)methyl]pyrrolidin-1-yl}(6-{[5-(trifluoromethyl)pyridin-2-yl]oxy}quinolin-2-yl)methanone], the IC50 is 1.1 µM.

Consider `O=C(c1ccc2cc(Oc3ccc(C(F)(F)F)cn3)ccc2n1)N1CCC(F)(COc2cccnc2)C1` (stereo not drawn) [Example 490, {3-fluoro-3-[(pyridin-3-yloxy)methyl]pyrrolidin-1-yl}(6-{[5-(trifluoromethyl)pyridin-2-yl]oxy}quinolin-2-yl)methanone], for which the IC50 was found to be 1.42 µM.

Turning to `O=C(c1ccc2cc(Oc3ccc(C(F)(F)F)cn3)ccc2n1)N1CCC(F)(COc2ccccc2)C1` (stereo not drawn) [Example 491, [3-fluoro-3-(phenoxymethyl)pyrrolidin-1-yl](6-{[5-(trifluoromethyl)pyridin-2-yl]oxy}quinolin-2-yl)methanone], the IC50 worked out at 4.99 µM.

Take `O=C(NCC1CN(C(=O)c2ccc3cc(Oc4ccc(C(F)(F)F)cn4)ccc3n2)CC1F)OCc1ccccc1` (stereo not drawn) [Example 492, benzyl ({4-fluoro-1-[(6-{[5-(trifluoromethyl)pyridin-2-yl]oxy}quinolin-2-yl)carbonyl]pyrrolidin-3-yl}methyl)carbamate]: the IC50 was determined as 0.858 µM.

For `COCCOCC1(F)CCN(C(=O)c2ccc3cc(Oc4ccc(C(F)(F)F)cn4)ccc3n2)C1` (stereo not drawn) [Example 493, {3-fluoro-3-[(2-methoxyethoxy)methyl]pyrrolidin-1-yl}(6-{[5-(trifluoromethyl)pyridin-2-yl]oxy}quinolin-2-yl)methanone], the IC50 worked out at 0.802 µM.

Take `O=C(c1ccc2cc(Oc3ccc(C(F)(F)F)cn3)ccc2n1)N1CCC2(COC2)C1` [Example 494, 2-oxa-6-azaspiro[3.4]oct-6-yl(6-{[5-(trifluoromethyl)pyridin-2-yl]oxy}quinolin-2-yl)methanone]: the IC50 is 9.32 µM.

With `O=C(c1ccc2cc(Oc3ccc(C(F)(F)F)cn3)ccc2n1)N1C[C@@H](F)C[C@@H]1CO` [Example 495, [(2R,4S)-4-fluoro-2-(hydroxymethyl)pyrrolidin-1-yl](6-{[5-(trifluoromethyl)pyridin-2-yl]oxy}quinolin-2-yl)methanone], the IC50 worked out at 1.69 µM.

For `O=C(c1ccc2cc(Oc3ccc(C(F)(F)F)cn3)ccc2n1)N1CC(F)(F)C[C@@H]1CO` [Example 496, [(2R)-4,4-difluoro-2-(hydroxymethyl)pyrrolidin-1-yl](6-{[5-(trifluoromethyl)pyridin-2-yl]oxy}quinolin-2-yl)methanone], the 50% inhibitory concentration (IC50) turned out to be 2.91 µM.

In the case of `O=C(c1ccc2cc(Oc3ccc(C(F)(F)F)cn3)ccc2n1)N1CC(F)(F)C[C@H]1CO` [Example 497, [(2S)-4,4-difluoro-2-(hydroxymethyl)pyrrolidin-1-yl](6-{[5-(trifluoromethyl)pyridin-2-yl]oxy}quinolin-2-yl)methanone], the concentration for half-maximal inhibition (IC50) came out at 3.43 µM.

In the case of `COc1cccc(N2CCN(C(=O)c3ccc4cc(Oc5ccc(C(F)(F)F)cn5)ccc4n3)CC2=O)c1` [Example 498, 1-(3-methoxyphenyl)-4-[(6-{[5-(trifluoromethyl)pyridin-2-yl]oxy}quinolin-2-yl)carbonyl]piperazin-2-one], the IC50 was found to be 0.923 µM.

Regarding `O=C(NC1CSC1)c1ccc2cc(Oc3ccc(C(F)(F)F)cn3)ccc2n1` [Example 499, N-(thietan-3-yl)-6-{[5-(trifluoromethyl)pyridin-2-yl]oxy}quinoline-2-carboxamide], the IC50 was found to be 0.938 µM.

As to `Cc1ccccc1NC(=O)CCNC(=O)c1ccc2cc(Oc3ccc(C(F)(F)F)cn3)ccc2n1` [Example 500, N-{3-[(2-methylphenyl)amino]-3-oxopropyl}-6-{[5-(trifluoromethyl)pyridin-2-yl]oxy}quinoline-2-carboxamide], the IC50 worked out at 0.293 µM.

For the compound `COc1ccccc1N1CC(NC(=O)c2ccc3cc(Oc4ccc(C(F)(F)F)cn4)ccc3n2)CC1=O` (stereo not drawn) [Example 502, N-[1-(2-methoxyphenyl)-5-oxopyrrolidin-3-yl]-6-{[5-(trifluoromethyl)pyridin-2-yl]oxy}quinoline-2-carboxamide], the IC50 was 0.429 µM.

Take `O=C(NC1C[S+]([O-])C1)c1ccc2cc(Oc3ccc(C(F)(F)F)cn3)ccc2n1` (stereo not drawn) [Example 503, N-(1-oxidothietan-3-yl)-6-{[5-(trifluoromethyl)pyridin-2-yl]oxy}quinoline-2-carboxamide]: the IC50 was 0.586 µM.

For the compound `O=C(NC1CS(=O)(=O)C1)c1ccc2cc(Oc3ccc(C(F)(F)F)cn3)ccc2n1` [Example 504, N-(1,1-dioxidothietan-3-yl)-6-{[5-(trifluoromethyl)pyridin-2-yl]oxy}quinoline-2-carboxamide], the IC50 was found to be 0.593 µM.

As for `CC(=O)C1CN(C(=O)c2ccc3cc(Oc4ccc(C(F)(F)F)cn4)ccc3n2)C1` [Example 506, 1-{1-[(6-{[5-(trifluoromethyl)pyridin-2-yl]oxy}quinolin-2-yl)carbonyl]azetidin-3-yl}ethanone], the IC50 amounted to 0.781 µM.

`O=C(c1ccc2cc(Oc3ccc(C(F)(F)F)cn3)ccc2n1)N1CC(F)C1` [Example 507, (3-fluoroazetidin-1-yl)(6-{[5-(trifluoromethyl)pyridin-2-yl]oxy}quinolin-2-yl)methanone]: the IC50 was determined as 2.18 µM.

On to `O=C(c1ccc2cc(Oc3ccc(C(F)(F)F)cn3)ccc2n1)N1CC(F)(F)C1` [Example 508, (3,3-difluoroazetidin-1-yl)(6-{[5-(trifluoromethyl)pyridin-2-yl]oxy}quinolin-2-yl)methanone], for which the IC50 turned out to be 3.65 µM.

Regarding `CN(C)C(=O)[C@@H]1C[C@@H](F)CN1C(=O)c1ccc2cc(Oc3ccc(C(F)(F)F)cn3)ccc2n1` [Example 509, (4R)-4-fluoro-N,N-dimethyl-1-[(6-{[5-(trifluoromethyl)pyridin-2-yl]oxy}quinolin-2-yl)carbonyl]-L-prolinamide], the IC50 is 2.64 µM.

For `O=C(c1ccc2cc(Oc3ccc(C(F)(F)F)cn3)ccc2n1)N1CCN(Cc2ncco2)CC1` [Example 510, [4-(1,3-oxazol-2-ylmethyl)piperazin-1-yl](6-{[5-(trifluoromethyl)pyridin-2-yl]oxy}quinolin-2-yl)methanone], the IC50 was 7.29 µM.

Regarding `O=C(NC1CCC(F)(F)CC1)c1ccc2cc(Oc3ccc(C(F)(F)F)nc3)ccc2n1` [Example 511, N-(4,4-difluorocyclohexyl)-6-{[6-(trifluoromethyl)pyridin-3-yl]oxy}quinoline-2-carboxamide], the IC50 was 1.98 µM.

Turning to `COCCNC(=O)CN(C)C(=O)c1ccc2cc(Oc3ccc(C(F)(F)F)nc3)ccc2n1` [Example 514, N-{2-[(2-methoxyethyl)amino]-2-oxoethyl}-N-methyl-6-{[6-(trifluoromethyl)pyridin-3-yl]oxy}quinoline-2-carboxamide], the IC50 is 12.9 µM.

Consider `O=C(NCCC(=O)N1CCOCC1)c1ccc2cc(Oc3ccc(C(F)(F)F)nc3)ccc2n1` [Example 515, N-[3-(morpholin-4-yl)-3-oxopropyl]-6-{[6-(trifluoromethyl)pyridin-3-yl]oxy}quinoline-2-carboxamide], for which the IC50 is 4.25 µM.

Take `O=C(NCCC(=O)N1CCCC1)c1ccc2cc(Oc3ccc(C(F)(F)F)nc3)ccc2n1` [Example 516, N-[3-oxo-3-(pyrrolidin-1-yl)propyl]-6-{[6-(trifluoromethyl)pyridin-3-yl]oxy}quinoline-2-carboxamide]: the IC50 was determined as 2 µM.

Regarding `CCN(CC)C(=O)CNC(=O)c1ccc2cc(Oc3ccc(C(F)(F)F)nc3)ccc2n1` [Example 517, N-[2-(diethylamino)-2-oxoethyl]-6-{[6-(trifluoromethyl)pyridin-3-yl]oxy}quinoline-2-carboxamide], the IC50 was 0.37 µM.

Take `O=C(NCC(=O)N1CCCCC1)c1ccc2cc(Oc3ccc(C(F)(F)F)nc3)ccc2n1` [Example 518, N-[2-oxo-2-(piperidin-1-yl)ethyl]-6-{[6-(trifluoromethyl)pyridin-3-yl]oxy}quinoline-2-carboxamide]: the IC50 came to 0.998 µM.

For the compound `CN1CC(NC(=O)c2ccc3cc(Oc4ccc(C(F)(F)F)nc4)ccc3n2)CC1=O` (stereo not drawn) [Example 519, N-(1-methyl-5-oxopyrrolidin-3-yl)-6-{[6-(trifluoromethyl)pyridin-3-yl]oxy}quinoline-2-carboxamide], the IC50 amounted to 1.16 µM.

Still in this assay, the particulars now being: read-out: FRET-Membrane Potential Nav1.7 IC50.
As for `O=C(NC1CCC(F)(F)C1)c1ccc2cc(Oc3ccc(C(F)F)cn3)ccc2n1` (stereo not drawn) [Example 486, N-(3,3-difluorocyclopentyl)-6-{[5-(difluoromethyl)pyridin-2-yl]oxy}quinoline-2-carboxamide], the IC50 was found to be 2.54 µM.

As for `CCOCC1(F)CCN(C(=O)c2ccc3cc(Oc4ccc(C(F)(F)F)cn4)ccc3n2)C1` (stereo not drawn) [Example 488, [3-(ethoxymethyl)-3-fluoropyrrolidin-1-yl](6-{[5-(trifluoromethyl)pyridin-2-yl]oxy}quinolin-2-yl)methanone], the IC50 worked out at 0.526 µM.

As to `CN(C)C(=O)[C@H](Cc1ccccc1)NC(=O)c1ccc2cc(Oc3ccc(C(F)(F)F)cn3)ccc2n1` [Example 501, N-[(2S)-1-(dimethylamino)-1-oxo-3-phenylpropan-2-yl]-6-{[5-(trifluoromethyl)pyridin-2-yl]oxy}quinoline-2-carboxamide], the IC50 worked out at 0.734 µM.

For the compound `O=C(NCC(=O)N1CCCC1)c1ccc2cc(Oc3ccc(C(F)(F)F)nc3)ccc2n1` [Example 513, N-[2-oxo-2-(pyrrolidin-1-yl)ethyl]-6-{[6-(trifluoromethyl)pyridin-3-yl]oxy}quinoline-2-carboxamide], the IC50 came to 0.911 µM.
